Data as given in ChEMBL document CHEMBL4507301 (2021).

What was measured:
[1] = target: Bone morphogenetic protein receptor type-2 (Homo sapiens) (UniProt Q13873); conditions: Compound concentration 1000.0 nM
[2] = target: Serine/threonine-protein kinase PRP4 homolog (Homo sapiens) (UniProt Q13523); conditions: Compound concentration 1000.0 nM
[3] = system: Receptor-type tyrosine-protein kinase FLT3 (Homo sapiens), P36888 [N841I]; conditions: Compound concentration 1000.0 nM
[4] = target: Serine/threonine-protein kinase DCLK3 (Homo sapiens) (UniProt Q9C098); conditions: Compound concentration 1000.0 nM
[5] = target: Mitogen-activated protein kinase 9 (Homo sapiens) (UniProt P45984); conditions: Compound concentration 1000.0 nM
[6] = target: Atypical kinase COQ8B, mitochondrial (Homo sapiens) (UniProt Q96D53); conditions: Compound concentration 1000.0 nM
[7] = target: Receptor-interacting serine/threonine-protein kinase 2 (Homo sapiens) (UniProt O43353); conditions: Compound concentration 1000.0 nM
[8] = system: Tyrosine-protein kinase ABL1 (Homo sapiens), P00519 [Y253F]; conditions: Compound concentration 1000.0 nM
[9] = target: Dual serine/threonine and tyrosine protein kinase (Homo sapiens) (UniProt Q6XUX3); conditions: Compound concentration 1000.0 nM
[10] = target: Dual specificity mitogen-activated protein kinase kinase 5 (Homo sapiens) (UniProt Q13163); conditions: Compound concentration 1000.0 nM
[11] = target: NUAK family SNF1-like kinase 2 (Homo sapiens) (UniProt Q9H093); conditions: Compound concentration 1000.0 nM
[12] = target: Muscarinic acetylcholine receptor M1 (Homo sapiens) (UniProt P11229); conditions: Compound concentration 10.0 uM
[13] = target: Hormonally up-regulated neu tumor-associated kinase (Homo sapiens) (UniProt P57058); conditions: Compound concentration 1000.0 nM
[14] = target: Histamine H2 receptor (Homo sapiens) (UniProt P25021); conditions: Compound concentration 10.0 uM
[15] = target: Casein kinase I isoform gamma-3 (Homo sapiens) (UniProt Q9Y6M4); conditions: Compound concentration 1000.0 nM
[16] = target: Myosin-IIIa (Homo sapiens) (UniProt Q8NEV4); conditions: Compound concentration 1000.0 nM
[17] = target: Casein kinase I isoform gamma-2 (Homo sapiens) (UniProt P78368); conditions: Compound concentration 1000.0 nM
[18] = target: MAP kinase-activated protein kinase 2 (Homo sapiens) (UniProt P49137); conditions: Compound concentration 1000.0 nM
[19] = target: GABA-A receptor; anion channel (Rattus norvegicus) (UniProt O09028+P15431+P18506+P18508+P19969+P20236+P23574+P23576+P28471+P28473+P30191+P62813+P63079+P63138+Q91ZM7+Q9ES14); conditions: Compound concentration 10.0 uM
[20] = target: Serine/threonine-protein kinase PLK1 (Homo sapiens) (UniProt P53350); conditions: Compound concentration 1000.0 nM
[21] = target: Serine/threonine-protein kinase 32C (Homo sapiens) (UniProt Q86UX6); conditions: Compound concentration 1000.0 nM
[22] = target: Serine/threonine-protein kinase pim-1 (Homo sapiens) (UniProt P11309); conditions: Compound concentration 1000.0 nM
[23] = target: LIM domain kinase 1 (Homo sapiens) (UniProt P53667); conditions: Compound concentration 1000.0 nM
[24] = target: Calcium/calmodulin-dependent protein kinase type 1B (Homo sapiens) (UniProt Q6P2M8); conditions: Compound concentration 1000.0 nM
[25] = target: SRSF protein kinase 3 (Homo sapiens) (UniProt Q9UPE1); conditions: Compound concentration 1000.0 nM
[26] = target: Glycogen synthase kinase-3 beta (Homo sapiens) (UniProt P49841); conditions: Compound concentration 1000.0 nM
[27] = target: AP2-associated protein kinase 1 (Homo sapiens) (UniProt Q2M2I8); conditions: Compound concentration 1000.0 nM
[28] = target: Serine/threonine-protein kinase pim-2 (Homo sapiens) (UniProt Q9P1W9); conditions: Compound concentration 1000.0 nM
[29] = target: Ribosomal protein S6 kinase alpha-3 (Homo sapiens) (UniProt P51812); conditions: Compound concentration 1000.0 nM
[30] = target: Testis-specific serine/threonine-protein kinase 1 (Homo sapiens) (UniProt Q9BXA7); conditions: Compound concentration 1000.0 nM
[31] = target: Cyclin-dependent kinase 11B (Homo sapiens) (UniProt P21127); conditions: Compound concentration 1000.0 nM
[32] = target: Serine/threonine-protein kinase SIK2 (Homo sapiens) (UniProt Q9H0K1); conditions: Compound concentration 1000.0 nM
[33] = target: Serine/threonine-protein kinase Nek2 (Homo sapiens) (UniProt P51955); conditions: Compound concentration 1000.0 nM
[34] = system: Epidermal growth factor receptor (Homo sapiens), P00533 [G719S]; conditions: Compound concentration 1000.0 nM
[35] = target: Ephrin type-A receptor 7 (Homo sapiens) (UniProt Q15375); conditions: Compound concentration 1000.0 nM
[36] = target: Ribosomal protein S6 kinase alpha-4 (Homo sapiens) (UniProt O75676); conditions: Compound concentration 1000.0 nM
[37] = target: Beta-adrenergic receptor kinase 1 (Homo sapiens) (UniProt P25098); conditions: Compound concentration 1000.0 nM
[38] = target: Mitogen-activated protein kinase kinase kinase 20 (Homo sapiens) (UniProt Q9NYL2); conditions: Compound concentration 1000.0 nM
[39] = target: Inhibitor of nuclear factor kappa-B kinase subunit epsilon (Homo sapiens) (UniProt Q14164); conditions: Compound concentration 1000.0 nM
[40] = target: Sodium-dependent serotonin transporter (Homo sapiens) (UniProt P31645); conditions: Compound concentration 10.0 uM
[41] = target: TRAF2 and NCK-interacting protein kinase (Homo sapiens) (UniProt Q9UKE5); conditions: Compound concentration 1000.0 nM
[42] = target: Tyrosine-protein kinase FRK (Homo sapiens) (UniProt P42685); conditions: Compound concentration 1000.0 nM
[43] = target: Serine/threonine-protein kinase 38-like (Homo sapiens) (UniProt Q9Y2H1); conditions: Compound concentration 1000.0 nM
[44] = target: Sigma non-opioid intracellular receptor 1 (Homo sapiens) (UniProt Q99720); conditions: Compound concentration 10.0 uM

Chain of Histamine H2 receptor (Homo sapiens) (P25021 whole entry, canonical isoform): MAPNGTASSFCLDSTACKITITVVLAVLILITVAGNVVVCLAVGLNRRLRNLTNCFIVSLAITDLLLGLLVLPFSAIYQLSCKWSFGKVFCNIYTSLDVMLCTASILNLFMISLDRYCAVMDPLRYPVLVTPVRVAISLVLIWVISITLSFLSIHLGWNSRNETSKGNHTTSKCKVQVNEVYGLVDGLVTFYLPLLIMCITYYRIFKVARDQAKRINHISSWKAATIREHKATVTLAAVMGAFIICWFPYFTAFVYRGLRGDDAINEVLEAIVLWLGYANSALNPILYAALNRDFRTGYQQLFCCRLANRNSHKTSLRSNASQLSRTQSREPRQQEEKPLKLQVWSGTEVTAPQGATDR
Chain of Beta-adrenergic receptor kinase 1 (Homo sapiens) (P25098 whole entry): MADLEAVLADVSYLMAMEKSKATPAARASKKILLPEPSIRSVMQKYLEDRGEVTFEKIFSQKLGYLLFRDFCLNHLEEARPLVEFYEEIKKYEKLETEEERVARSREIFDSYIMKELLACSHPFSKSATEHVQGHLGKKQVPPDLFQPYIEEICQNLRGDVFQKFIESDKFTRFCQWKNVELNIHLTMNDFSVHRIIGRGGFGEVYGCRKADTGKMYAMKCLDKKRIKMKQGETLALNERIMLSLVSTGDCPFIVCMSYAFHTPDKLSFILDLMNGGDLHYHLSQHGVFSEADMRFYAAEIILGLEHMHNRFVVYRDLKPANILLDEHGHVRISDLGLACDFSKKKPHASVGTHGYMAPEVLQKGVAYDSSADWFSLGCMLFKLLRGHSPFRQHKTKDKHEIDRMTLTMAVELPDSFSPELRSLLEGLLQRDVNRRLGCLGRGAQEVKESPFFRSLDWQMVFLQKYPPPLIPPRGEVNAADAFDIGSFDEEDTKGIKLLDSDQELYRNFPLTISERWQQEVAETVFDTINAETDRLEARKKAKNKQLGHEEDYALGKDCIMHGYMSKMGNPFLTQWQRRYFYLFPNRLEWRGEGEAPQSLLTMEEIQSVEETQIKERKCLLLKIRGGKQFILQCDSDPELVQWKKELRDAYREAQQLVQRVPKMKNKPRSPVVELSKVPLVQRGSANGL
Chain of Testis-specific serine/threonine-protein kinase 1 (Homo sapiens) (Q9BXA7 whole entry): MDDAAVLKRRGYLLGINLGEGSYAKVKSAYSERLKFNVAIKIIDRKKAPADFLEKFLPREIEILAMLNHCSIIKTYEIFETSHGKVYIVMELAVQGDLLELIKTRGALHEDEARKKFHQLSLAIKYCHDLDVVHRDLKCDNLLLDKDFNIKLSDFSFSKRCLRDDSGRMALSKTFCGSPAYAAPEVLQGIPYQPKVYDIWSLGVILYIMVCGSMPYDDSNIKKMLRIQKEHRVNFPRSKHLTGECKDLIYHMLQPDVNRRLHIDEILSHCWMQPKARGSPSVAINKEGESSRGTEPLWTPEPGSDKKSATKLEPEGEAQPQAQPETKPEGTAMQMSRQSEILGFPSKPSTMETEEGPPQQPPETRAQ
Chain of Serine/threonine-protein kinase PLK1 (Homo sapiens) (P53350 whole entry): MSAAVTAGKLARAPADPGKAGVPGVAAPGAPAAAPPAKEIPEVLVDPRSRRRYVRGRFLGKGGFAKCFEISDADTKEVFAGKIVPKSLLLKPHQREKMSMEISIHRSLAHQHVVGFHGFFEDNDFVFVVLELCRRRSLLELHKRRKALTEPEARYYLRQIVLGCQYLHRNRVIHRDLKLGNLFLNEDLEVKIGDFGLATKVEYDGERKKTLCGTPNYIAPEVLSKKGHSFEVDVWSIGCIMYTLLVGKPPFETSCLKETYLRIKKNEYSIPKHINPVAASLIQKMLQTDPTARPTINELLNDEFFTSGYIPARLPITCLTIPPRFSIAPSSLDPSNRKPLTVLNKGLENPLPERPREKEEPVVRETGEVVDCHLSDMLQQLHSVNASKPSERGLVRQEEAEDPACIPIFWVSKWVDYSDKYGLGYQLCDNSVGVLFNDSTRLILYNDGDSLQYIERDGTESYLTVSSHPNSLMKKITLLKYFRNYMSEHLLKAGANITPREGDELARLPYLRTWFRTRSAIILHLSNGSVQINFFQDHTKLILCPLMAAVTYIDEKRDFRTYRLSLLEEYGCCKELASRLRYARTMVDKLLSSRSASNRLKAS
Chain of AP2-associated protein kinase 1 (Homo sapiens) (Q2M2I8 whole entry, looked up): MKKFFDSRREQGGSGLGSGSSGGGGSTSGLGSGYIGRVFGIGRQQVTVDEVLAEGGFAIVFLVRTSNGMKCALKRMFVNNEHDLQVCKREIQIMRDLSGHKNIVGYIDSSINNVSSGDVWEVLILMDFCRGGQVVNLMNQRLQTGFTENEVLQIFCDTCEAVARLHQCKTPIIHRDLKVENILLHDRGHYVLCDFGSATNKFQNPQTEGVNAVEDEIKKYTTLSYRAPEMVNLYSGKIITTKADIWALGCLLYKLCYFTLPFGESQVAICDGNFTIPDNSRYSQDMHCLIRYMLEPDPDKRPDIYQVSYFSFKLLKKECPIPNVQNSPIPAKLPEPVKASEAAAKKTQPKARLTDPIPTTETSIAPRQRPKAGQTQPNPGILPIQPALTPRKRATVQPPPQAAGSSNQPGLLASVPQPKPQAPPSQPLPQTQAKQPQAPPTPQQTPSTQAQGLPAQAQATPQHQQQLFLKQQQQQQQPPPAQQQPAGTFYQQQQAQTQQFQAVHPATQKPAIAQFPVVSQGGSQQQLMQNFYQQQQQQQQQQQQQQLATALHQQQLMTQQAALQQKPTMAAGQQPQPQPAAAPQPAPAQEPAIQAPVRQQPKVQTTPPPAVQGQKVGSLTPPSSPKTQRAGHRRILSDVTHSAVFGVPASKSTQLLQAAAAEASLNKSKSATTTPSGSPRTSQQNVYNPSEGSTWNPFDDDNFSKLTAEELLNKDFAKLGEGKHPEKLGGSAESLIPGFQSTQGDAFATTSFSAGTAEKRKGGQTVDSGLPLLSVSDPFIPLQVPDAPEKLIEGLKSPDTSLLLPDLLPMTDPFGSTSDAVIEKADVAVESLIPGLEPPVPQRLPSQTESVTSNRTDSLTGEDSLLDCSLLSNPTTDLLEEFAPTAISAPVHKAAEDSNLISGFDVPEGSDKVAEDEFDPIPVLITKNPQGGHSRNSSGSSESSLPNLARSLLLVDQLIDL
Chain of Mitogen-activated protein kinase 9 (Homo sapiens) (P45984 whole entry, looked up): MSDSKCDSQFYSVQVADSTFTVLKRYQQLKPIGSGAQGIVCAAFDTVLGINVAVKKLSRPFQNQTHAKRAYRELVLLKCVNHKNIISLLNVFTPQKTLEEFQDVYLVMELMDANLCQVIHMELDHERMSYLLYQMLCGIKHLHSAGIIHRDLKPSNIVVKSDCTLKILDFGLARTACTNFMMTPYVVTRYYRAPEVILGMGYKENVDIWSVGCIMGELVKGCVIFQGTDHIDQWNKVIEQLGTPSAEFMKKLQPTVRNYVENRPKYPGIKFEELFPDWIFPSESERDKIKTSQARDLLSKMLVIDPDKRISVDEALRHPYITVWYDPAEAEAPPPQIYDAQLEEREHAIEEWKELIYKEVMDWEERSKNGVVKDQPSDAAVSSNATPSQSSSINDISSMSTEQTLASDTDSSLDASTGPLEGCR
Chain of LIM domain kinase 1 (Homo sapiens) (P53667 whole entry, looked up, the tested form may be a part): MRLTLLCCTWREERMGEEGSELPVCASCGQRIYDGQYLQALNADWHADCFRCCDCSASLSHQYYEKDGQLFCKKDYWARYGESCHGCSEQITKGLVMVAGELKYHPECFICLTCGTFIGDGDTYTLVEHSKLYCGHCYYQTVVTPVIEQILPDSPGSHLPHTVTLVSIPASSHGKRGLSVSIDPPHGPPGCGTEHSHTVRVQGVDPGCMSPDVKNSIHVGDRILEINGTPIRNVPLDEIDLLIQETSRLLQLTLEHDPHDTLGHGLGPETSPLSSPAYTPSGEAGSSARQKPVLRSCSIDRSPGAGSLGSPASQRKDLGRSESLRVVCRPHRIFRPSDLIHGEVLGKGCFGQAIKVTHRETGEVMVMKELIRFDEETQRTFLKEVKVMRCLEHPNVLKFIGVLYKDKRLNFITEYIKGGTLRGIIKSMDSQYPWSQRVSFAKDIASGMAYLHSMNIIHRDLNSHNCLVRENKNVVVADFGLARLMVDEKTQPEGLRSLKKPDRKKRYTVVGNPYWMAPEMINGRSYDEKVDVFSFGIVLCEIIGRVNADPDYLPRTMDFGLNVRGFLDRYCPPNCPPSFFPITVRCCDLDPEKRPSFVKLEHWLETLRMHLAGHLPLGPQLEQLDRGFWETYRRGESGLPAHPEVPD
Chain of Tyrosine-protein kinase FRK (Homo sapiens) (P42685 whole entry): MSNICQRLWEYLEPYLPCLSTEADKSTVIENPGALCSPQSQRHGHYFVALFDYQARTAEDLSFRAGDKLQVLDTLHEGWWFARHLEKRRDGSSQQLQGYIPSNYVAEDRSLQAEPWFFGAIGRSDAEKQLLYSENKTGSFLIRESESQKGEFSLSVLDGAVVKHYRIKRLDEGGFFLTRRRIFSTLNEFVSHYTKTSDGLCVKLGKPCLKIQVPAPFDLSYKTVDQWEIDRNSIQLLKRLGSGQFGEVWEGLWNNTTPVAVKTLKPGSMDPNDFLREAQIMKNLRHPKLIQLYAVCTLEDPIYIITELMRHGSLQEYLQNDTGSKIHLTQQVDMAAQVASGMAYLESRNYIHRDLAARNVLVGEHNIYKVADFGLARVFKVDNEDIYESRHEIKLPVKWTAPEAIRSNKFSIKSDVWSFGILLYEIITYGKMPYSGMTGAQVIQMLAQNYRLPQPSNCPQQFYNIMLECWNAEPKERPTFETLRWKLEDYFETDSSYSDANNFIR
Chain of Serine/threonine-protein kinase 38-like (Homo sapiens) (Q9Y2H1 2-464 limits assumed): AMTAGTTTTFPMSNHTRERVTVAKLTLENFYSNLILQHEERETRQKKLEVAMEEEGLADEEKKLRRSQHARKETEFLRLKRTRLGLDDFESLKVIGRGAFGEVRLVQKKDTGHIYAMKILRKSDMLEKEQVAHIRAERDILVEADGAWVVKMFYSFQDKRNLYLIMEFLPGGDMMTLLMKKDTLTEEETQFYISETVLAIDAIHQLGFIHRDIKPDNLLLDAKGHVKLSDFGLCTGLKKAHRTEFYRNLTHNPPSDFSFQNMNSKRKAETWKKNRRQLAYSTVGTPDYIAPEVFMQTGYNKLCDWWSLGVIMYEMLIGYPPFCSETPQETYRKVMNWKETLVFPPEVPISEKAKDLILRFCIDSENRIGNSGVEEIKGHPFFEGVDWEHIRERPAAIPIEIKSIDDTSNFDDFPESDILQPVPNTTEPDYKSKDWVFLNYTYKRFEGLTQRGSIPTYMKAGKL

C[C@H](c1cccc(C#N)c1)n1cc(Cl)cc(C(N)=O)c1=N [(R)-9s]
inactive: residual activity [1] 97% | residual activity [2] 93% | residual activity [3] 97% | residual activity [4] 99% | residual activity [5] 96% | residual activity [6] 100% | residual activity [7] 66% | residual activity [8] 88% | residual activity [9] 83% | residual activity [10] 100% | residual activity [11] 91% | inhibition [12] 9.11% | residual activity [13] 89% | inhibition [14] 10.8% | residual activity [15] 100% | residual activity [16] 100% | residual activity [17] 99% | residual activity [18] 100% | inhibition [19] 1.07% | residual activity [20] 89% | residual activity [21] 100% | residual activity [22] 100% | residual activity [23] 88% | residual activity [24] 89% | residual activity [25] 100% | residual activity [26] 95% | residual activity [27] 100% | residual activity [28] 100% | residual activity [29] 95% | residual activity [30] 96% | residual activity [31] 86% | residual activity [32] 100% | residual activity [33] 100% | residual activity [34] 100% | residual activity [35] 98% | residual activity [36] 100% | residual activity [37] 81% | residual activity [38] 86% | residual activity [39] 82% | inhibition [40] 9.99% | residual activity [41] 100% | residual activity [42] 98% | residual activity [43] 68% | inhibition [44] 17.7%

C[C@@H](c1cccc(C#N)c1)n1cc(Cl)cc(C(N)=O)c1=N [(S)-9s]
inactive: residual activity [1] 100% | residual activity [2] 100% | residual activity [3] 86% | residual activity [4] 86% | residual activity [5] 82% | residual activity [6] 88% | residual activity [7] 88% | residual activity [8] 85% | residual activity [9] 87% | residual activity [10] 88% | residual activity [11] 86% | inhibition [12] 14.9% | residual activity [13] 100% | inhibition [14] 8.25% | residual activity [15] 100% | residual activity [16] 99% | residual activity [17] 100% | residual activity [18] 97% | inhibition [19] 8.14% | residual activity [20] 98% | residual activity [21] 100% | residual activity [22] 100% | residual activity [23] 100% | residual activity [24] 88% | residual activity [25] 100% | residual activity [26] 88% | residual activity [27] 100% | residual activity [28] 100% | residual activity [29] 94% | residual activity [30] 100% | residual activity [31] 86% | residual activity [32] 100% | residual activity [33] 100% | residual activity [34] 100% | residual activity [35] 100% | residual activity [36] 100% | residual activity [37] 78% | residual activity [38] 71% | residual activity [39] 56% | inhibition [40] 14.8% | residual activity [41] 56% | residual activity [42] 100% | residual activity [43] 85% | inhibition [44] 17.4%
